Assays:
[1] = system: hard fouling; test: Raft panel static immersion test of antifouling paints: hard fouling; design: key: G: Not present; Some light slime; F: Overall covered; details: Dutch harbor, sea water
Excerpt: (§1) The prepared paints have been evaluated on can stability, adhesion and film defects. The antifouling performance has been tested by application of the paints on raft panels. At first the steel panels had been protected with a standard anticorrosive system for marine environments (300 μm in dft). The to be tested antifouling paint had been applied in 2 layers with a total dry film thickness between 200 and 300 μm. Finally the panels were subjected to a static immersion test on rafts at sea harbors in Holland. The paints were inspected for the presence of fouling (% of area covered with fouling organisms) and of film defects every two months. The tested paint formulations are represented in Table 1.
(§2) Further explanations to Table 1: • 1. Model coatings of type 1 (MC-1A/B/C) are for the evaluation of the algicidal properties of the claimed structures at three different representative weight-% next to 35% cuprous oxide. Good performing references are model coating MC-2 and MC-3 [35% cuprous oxide+3% Seanine (MC-2) or 35% cuprous oxide+3% Irgarol (MC-3)]. Base level references are “cuprous oxide only” formulations [cuprous oxide only (35% (MC4) and 50% level (MC-5)]. • 2. Model coatings of type 6 and 7 are for the evaluation of the activity of the claimed structures against “hard fouling” in combination with two different types of algicides: claimed structure (1/2/4%; MC-6-A/B/C)+3% Seanine or claimed structure (1/2/4%; MC-7-A/B/C)+3% Irgarol). Base level references are “algicide only” formulations with 3% Seanine (MC-8) or 3% Irgarol (MC-9).
(§3) 3. Model coatings of type 10 (MC-10A/B) evaluate the total spectrum of biocidal activity by using the claimed structure as only biocide at 2 levels (4 and 8 w %). Good performing references are “cuprous oxide only” formulations [cuprous oxide 35% (MC-4) and 50% (MC-5)]. As blank serves model coating 11 (MC-1 1) containing no biocide at all.
(§4) The claimed structures were tested at several levels of dosage with and without an algicide as co-biocide. The following formulations were used for comparison: formulations with cuprous oxide, formulations with cuprous oxide and commercial co-biocides, a blank and two formulations that only contained the co-biocide and finally a commercial tributyltin-releasing self polishing system.
(§5) An even better protection can be obtained by combining claimed structures with co-biocides like the algicides that are commonly used for antifoulings.

[2] = system: algae; test: Raft panel static immersion test of antifouling paints: algae; design: key: G: Not present; Some light slime; F: Overall covered; details: Dutch harbor, sea water
Excerpt: as §1, §2, §3, §4, §5

[3] = system: cyprid larvae of the barnacle Balanus amphitrite; test: Settlement assay, cyprid larvae of the barnacle; assay type: in vivo; details: Balanus amphitrite cyprids, seawater, 27° C., Spearman-Karber
Protocol: The rate of settlement of laboratory reared cyprid larvae of the barnacle Balanus amphitrite was determined for testing the activity of candidate antifouling compounds. Settlement Assay Tests are carried out in four replicates in sterile polystyrene multi well plates. Between 25 and 40 cyprid larvae are injected in the dishes containing either 2 ml of test solution (see below), solvent control or a positive control (dichloro-n-octyl-isothiazolinone). Dishes are incubated for 24 h at a temperature of 27° C. ±2. After incubation the cyprids are screened for signs of toxicity. The test is terminated by addition of a drop of 20% formaldehyde and the numbers of settled and non-settled larvae are counted. Settlement is evaluated as follows: 1) non settled: not attached free-swimming cyprids, 2) settled cyprids: attached, but not metamorphosed cyprids, 3) barnacles: attached juvenile barnacles. Categories 2 and 3 are considered to be settled. Percentage settlement in test solution is compared with controls. Estimates of the median effect concentration (EC50) after […] are calculated using the Spearman-Karber method. All seawater used is of natural origin and filtered unto 0.2 μm. Stock solutions of test compounds are prepared by dissolving an amount of test substance in a suitable solvent and subsequent addition of seawater. […]

[4] = system: fouling organisms; test: Raft panel static immersion test of antifouling paints: overall; design: key: good (G); satisfactory (S); failure (F); details: Dutch harbor, sea water
Excerpt: as §1, §2, §3, §4, §5

[5] = system: slime; test: Raft panel static immersion test of antifouling paints: slime; design: key: G: Not present; Some light slime; F: Overall covered; details: Dutch harbor, sea water
Excerpt: as §1, §2, §3, §4, §5

[6] = model coating 1A: 35% Cu2O + 1% of compound
[7] = model coating 1B: 35% Cu2O + 2% of compound
[8] = model coating 1C: 35% Cu2O + 3% of compound
[9] = model coating 6C: 4% of compound + 3% Seanine
[10] = model coating 10B: 8% of compound as only biocide
[11] = model coating 6A: 1% of compound + 3% Seanine
[12] = model coating 6B: 2% of compound + 3% Seanine
[13] = model coating 7A: 1% of compound + 3% Irgarol
[14] = model coating 7B: 2% of compound + 3% Irgarol
[15] = model coating 7C: 4% of compound + 3% Irgarol
[16] = model coating 10A: 4% of compound as only biocide

## C=CCCCCCCCCCNC=O [Compound 8, N-formyl-1-aminoundec-10-ene]
[1]; [6]
  Performance (1 yr immersed) Hard fouling: G
[1]; [7]
  Performance (1 yr immersed) Hard fouling: G
[1]; [8]
  Performance (1 yr immersed) Hard fouling: G
[1]; [9]
  Performance (1 yr immersed) Hard fouling: G
[1]; [10]
  Performance (1 yr immersed) Hard fouling: G
[2]; [7]
  Performance (1 yr immersed) Algae: G
[2]; [8]
  Performance (1 yr immersed) Algae: G
[2]; [11]
  Performance (1 yr immersed) Algae: G
[2]; [12]
  Performance (1 yr immersed) Algae: G
[2]; [9]
  Performance (1 yr immersed) Algae: G
[2]; [13]
  Performance (1 yr immersed) Algae: G
[2]; [14]
  Performance (1 yr immersed) Algae: G
[2]; [15]
  Performance (1 yr immersed) Algae: G
[3]
  EC50 for settlement inhibition in ppm: 0.60 ppm
[4]; [6]
  Performance (1 yr immersed) Overall: S
[4]; [7]
  Performance (1 yr immersed) Overall: S
[4]; [8]
  Performance (1 yr immersed) Overall: G
[4]; [11]
  Performance (1 yr immersed) Overall: F
[4]; [12]
  Performance (1 yr immersed) Overall: S
[4]; [9]
  Performance (1 yr immersed) Overall: G
[4]; [13]
  Performance (1 yr immersed) Overall: F
[4]; [14]
  Performance (1 yr immersed) Overall: S
[4]; [15]
  Performance (1 yr immersed) Overall: S
[4]; [16]
  Performance (1 yr immersed) Overall: F
[4]; [10]
  Performance (1 yr immersed) Overall: S
[5]; [6]
  Performance (1 yr immersed) Slime: S
[5]; [7]
  Performance (1 yr immersed) Slime: S
[5]; [8]
  Performance (1 yr immersed) Slime: G
[5]; [11]
  Performance (1 yr immersed) Slime: S
[5]; [12]
  Performance (1 yr immersed) Slime: S
[5]; [9]
  Performance (1 yr immersed) Slime: G
[5]; [13]
  Performance (1 yr immersed) Slime: S
[5]; [14]
  Performance (1 yr immersed) Slime: S
[5]; [15]
  Performance (1 yr immersed) Slime: S
[5]; [16]
  Performance (1 yr immersed) Slime: F
[5]; [10]
  Performance (1 yr immersed) Slime: S
